Measured values: patent US5583113A, “Use of a direct-acting thrombin inhibitor for the manufacture of a medicinal product having thrombolytic activity” (Synthelabo, priority 1992, dated 1996)

System: electrical stimulation induced occlusive aortic thrombosis
Assay: Thrombolytic activity in a rat model of electrical stimulation induced occlusive aortic thrombosis
Type: in vivo, CD rats
Settings: for Area under the curve (cm^2 ± s.e.m.): area under the blood flow trace; for Area under the curve (cm^2 ± s.e.m.) / Number of animals showing thrombolyis: n=8; for Thrombolytic activity (result in words): in the absence of exogenous plasminogen activators
Protocol: The compounds which are usable according to the invention were studied in rats for their activity as thrombolytic agents in a model of electrical stimulation induced occlusive aortic thrombosis.
CD rats weighing 450 g to 500 g are anaesthetized with sodium pentobarbital (60 mg/kg i.p.) and the left renal artery is catheterized. Thrombosis is induced according to the method described by Hladovec (Throm. Haemosts. (1971), 26, 407-410). A segment of abdominal aorta approximately 1 cm in length is exposed between the renal artery and the iliac bifurcation, and an electromagnetic flow probe is placed around this segment to measure blood flow rate, and a bipolar electrode is placed downstream of the probe. After 15 minutes of stabilisation, a 5 mA direct current is applied for 5 minutes to the outer surface of the artery using a stimulator. When the flow rate reaches the zero value, previously determined by clamping the artery between the probe and the electrode, the time to formation of an occlusive thrombus is noted. After 5 minutes of stabilisation of the thrombus, the test compound or the vehicle is injected via the catheter as a 0.5 ml bolus followed by a 60 minute perfusion at 0.1 ml/min. The blood flow rate is recorded during the perfusion period. Thrombolysis is estimated by measuring the area under the blood flow trace, which reflects both the time to, and the extent of recanalisation. The results are expressed as a mean #standard error of the mean.
In animals receiving the vehicle, the abdominal aorta remains occluded throughout the period of administration. In contrast, direct acting thrombin inhibitors increase the area under the curve in a dose-dependent manner and rapidly restore blood flow.

[1] = dose 100 + 20 μg/kg + μg/kg/min
[2] = dose 100 + 20 μg/kg + μg/kg/min (bolus + 60 minute perfusion)
[3] = dose 200 + 40 μg/kg + μg/kg/min
[4] = dose 200 + 40 μg/kg + μg/kg/min (bolus + 60 minute perfusion)
[5] = dose 400 + 80 μg/kg + μg/kg/min

`CC1CNc2c(cccc2S(=O)(=O)N[C@@H](CCCNC(=N)N)C(=O)N2CC[C@@H](C)C[C@@H]2C(=O)O)C1` (stereo partly drawn) [Argatroban, argatroban] was tested. Which “% Increase (area under the curve vs vehicle)” value (“% Increase” below) (dose 25 + 5 μg/kg + μg/kg/min) did it give?
Its value is 284%.

And the “Area under the curve (cm^2 ± s.e.m.)” value (dose 25 + 5 μg/kg + μg/kg/min (bolus + 60 minute perfusion))?
Its value is 137.5 ± 45.6 cm^2.

And the “Number of animals showing thrombolyis” value (dose 25 + 5 μg/kg + μg/kg/min)?
Its value is 4.

And the “% Increase” value [1]?
The value was 406%.

What about the “Area under the curve (cm^2 ± s.e.m.)” value [2] of the same compound?
The value was 181.1 ± 99.6 cm^2.

And the “Number of animals showing thrombolyis” value [1]?
Its value is 3.

And the “% Increase” value [3]?
The value was 1186%.

What about the “Area under the curve (cm^2 ± s.e.m.)” value [4] of the same compound?
The value was 460.3 ± 86.5 cm^2.

What about the “Number of animals showing thrombolyis” value [3] of the same compound?
The value was 7.

And the “Thrombolytic activity (result in words)” value?
The value was “have shown thrombolytic activity”.

Which “% Increase” value [1] does the source give for `CC(=O)N[C@H](Cc1ccccc1)C(=O)N1CCC[C@H]1C(=O)N[C@@H](CCCN=C(N)N)B(O)O` [DUP714, Ac-(D-Phe)-Pro-boro-Arg-OH] here?
The value was 620%.

What about the “Area under the curve (cm^2 ± s.e.m.)” value [2] of the same compound?
The value was 339.7 ± 84.7 cm^2.

And the “Number of animals showing thrombolyis” value [1]?
The value was 5.

And the “% Increase” value [3]?
Its value is 667%.

And the “Area under the curve (cm^2 ± s.e.m.)” value [4]?
Its value is 362.3 ± 61.1 cm^2.

And the “Number of animals showing thrombolyis” value [3]?
Its value is 7.

And the “% Increase” value [5]?
Its value is 1118%.

And the “Area under the curve (cm^2 ± s.e.m.)” value (dose 400 + 80 μg/kg + μg/kg/min (bolus + 60 minute perfusion))?
Its value is 575.3 ± 99.0 cm^2.

And the “Number of animals showing thrombolyis” value [5]?
Its value is 8.

What about the “Thrombolytic activity (result in words)” value of the same compound?
Its value is “have shown thrombolytic activity”.

For `NC(N)=NCCC[C@H](NC(=O)[C@@H]1CCCN1C(=O)[C@H](N)Cc1ccccc1)C(=O)CCl` [PPACK, D-Phe-Pro-Arg chloromethyl ketone], which “% Increase” value (dose 50 + 10 μg/kg + μg/kg/min) is on record?
Its value is 572%.

And the “Area under the curve (cm^2 ± s.e.m.)” value (dose 50 + 10 μg/kg + μg/kg/min (bolus + 60 minute perfusion))?
Its value is 291.7 ± 96.5 cm^2.

What about the “Number of animals showing thrombolyis” value (dose 50 + 10 μg/kg + μg/kg/min) of the same compound?
The value was 5.

What about the “% Increase” value [1] of the same compound?
Its value is 556%.

What about the “Area under the curve (cm^2 ± s.e.m.)” value [2] of the same compound?
Its value is 284.8 ± 98.9 cm^2.

What about the “Number of animals showing thrombolyis” value [1] of the same compound?
Its value is 5.

What about the “% Increase” value [3] of the same compound?
The value was 1148%.

And the “Area under the curve (cm^2 ± s.e.m.)” value [4]?
Its value is 542.7 ± 75.2 cm^2.

And the “Number of animals showing thrombolyis” value [3]?
The value was 7.

And the “Thrombolytic activity (result in words)” value?
The value was “have shown thrombolytic activity”.
